Results as given in patent publication US20230416168A1 (EUROCHEM ANTWERPEN, priority 2020, published 2023).
Read-outs that look alike come from different tables or passages of the source.

How the values were obtained:
Nitrosomonas europaea = assay: Nitrification inhibition assay with Nitrosomonas europaea (nitrite level after 24 h); assay type: cell-based; settings: for IC50 / activity at 100 µM: Nitrosomonas europaea; for IC50: 8-point dose response, 2 to 100 μM, read-out: IC50; for activity at 100 µM: tested concentration 100 μM, 24 h, normalized to DMSO (100%) and 100 μM DMP (0%), read-out: Nitrification (%) at tested concentration (0 = maximum activity)
Summary of the method: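 Fivefold-concentrated N. europaea culture with ammonium incubated 24 h at 28 °C, shaken, with compound (single-point screen at 50 μM final; dose–response 2–100 μM, 8 points, 1.75-fold steps). Nitrite measured by Griess reagent at 540 nm, normalised per plate to 1% DMSO and 100 μM DMP controls; IC50 from logistic fit.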

Moorslede soil = assay: In soil nitrification inhibition assay, Moorslede soil; settings: for inhibition at 50 µM / inhibition at 5 µM / inhibition at 20 µM: soil
Procedure: Top layer (0 to 10 cm) soil samples were collected from different fields in Belgium (Merelbeke and Moorslede). Vegetation on the field trial was removed and samples were taken from different plots. All soil samples were mixed and sieved (mesh size 2.8 mm) to filter large debris and homogenize soil. The soil was stored at 5° C. in plastic containers covered with Saran foil to prevent changes in microbial community composition and to maintain the original soil water content.
Soil water content was determined by drying 20 g soil for 48 h in a 60° C. oven and measuring weight before and after drying. Based on the soil water content (±20%), compound solutions were prepared so that addition of 200 μl compound and 200 μl NH4Cl solution would result in a final compound concentration of 50 μM and a final NH4^+ concentration of 10 mM. Per treatment, 5 small pots were filled with 20 g soil. Next, the soil was treated first with the respective compound solution and then with the NH4Cl solution. Per tray, positive (50 μM DMP) and negative controls (DMSO) were included. Pots were incubated at 21° C. (6 a.m. to 10 p.m. light) for 7 days. Demineralized water was added to the soil every 2 to 3 days to a soil weight of 20 g. In the end, each sample of 20 g soil was dissolved in 100 ml 1M KCl and shaken for 1 hour, followed by filtration through Whatmann® paper. The filtrate was used to measure pH, NH4^+ and NO3− concentrations.
A set of examples was tested in the same conditions (Moorslede soil, 3 days of incubation) at a concentration of 50 μM.
Another set of examples was tested in different concentrations in Moorslede soil as well, and were sampled after 5 days.
The effect of 3H-1,3-thiazole-2-thione was tested in soil in accordance with the test described above in section 3.3.

[1] = 72 h, 3 days, read-out: % Nitrification inhibition in soil (3 days of incubation, Moorslede soil) at 50 μM
[2] = 120 h, 5 days, read-out: % Nitrification inhibition in soil (5 days of incubation, Moorslede soil) at indicated concentration
[3] = 120 h, 20 μM, 5 days, read-out: % Nitrification inhibition in soil (5 days of incubation, Moorslede soil) at indicated concentration

Question: How did the “nitrification inhibition, in words” value (Nitrosomonas europaea) turn out when `CN(Cc1c(Cl)nc2sccn12)CN1CCSC1=S` [Example 1, 3-[[(6-chloroimidazo[2,1-b][1,3]thiazol-5-yl)methyl-methylamino]methyl]-1,3-thiazolidine-2-thione] was run?
Answer: The value was “strongly inhibited nitrification”.

Question: And the IC50 (Nitrosomonas europaea)?
Answer: Its IC50 is < 2 µM.

Question: And the activity at 100 µM (Nitrosomonas europaea)?
Answer: The activity at 100 µM was 0%.

Question: How did the “nitrification inhibition, in words” value (Nitrosomonas europaea) turn out when `CN(Cc1nc2ccccc2s1)CN1CCOC1=S` [Example 5, 3-[[1,3-benzothiazol-2-ylmethyl(methyl)amino]methyl]-1,3-oxazolidine-2-thione] was run?
Answer: The value was “strong nitrification inhibition”.

Question: What about the IC50 (Nitrosomonas europaea) of the same molecule?
Answer: The IC50 was 11 µM.

Question: What about the activity at 100 µM (Nitrosomonas europaea) of the same molecule?
Answer: Its activity at 100 µM is 0%.

Question: With `S=C1NCCO1` [Example 7] as the molecule, how does the inhibition at 50 µM (Moorslede soil; [1]) read?
Answer: Its inhibition at 50 µM is 100%.

Question: What about the inhibition at 5 µM (Moorslede soil; [2]) of the same molecule?
Answer: The inhibition at 5 µM was 8%.

Question: And the inhibition at 20 µM (Moorslede soil; [3])?
Answer: The inhibition at 20 µM was 32%.

Question: And the inhibition at 50 µM (Moorslede soil; [2])?
Answer: The inhibition at 50 µM was 38%.

Question: And the IC50 (Nitrosomonas europaea)?
Answer: Its IC50 is < 6 µM.

Question: And the activity at 100 µM (Nitrosomonas europaea)?
Answer: Its activity at 100 µM is 0%.

Question: What does the source list for `S=c1[nH]ccs1` [Example 24, 3H-1,3-thiazole-2-thione]?
Answer: nitrification inhibition in soil, in words (Moorslede soil; 20 μM, 5 days): effectively inhibits nitrification in soil; inhibition at 50 µM (Moorslede soil; [1]): 40%; inhibition at 20 µM (Moorslede soil; 120 h, 20 μM, 5 days, read-out: Average % nitrification inhibition in soil (5 days of incubation, Moorslede soil) at 20 μM): 14%; nitrification inhibition, in words (Nitrosomonas europaea): nearly completely inhibits nitrification; Average nitrification [%] in Nitrosomonas europaea (Nitrosomonas europaea; 2 μM): 79%; Average nitrification [%] in Nitrosomonas europaea (Nitrosomonas europaea; 3.5 μM): 78%; Average nitrification [%] in Nitrosomonas europaea (Nitrosomonas europaea; 6 μM): 76%; Average nitrification [%] in Nitrosomonas europaea (Nitrosomonas europaea; 11 μM): 74%; Average nitrification [%] in Nitrosomonas europaea (Nitrosomonas europaea; 19 μM): 60%; Average nitrification [%] in Nitrosomonas europaea (Nitrosomonas europaea; 33 μM): 43%; Average nitrification [%] in Nitrosomonas europaea (Nitrosomonas europaea; 57 μM): 20%; Average nitrification [%] in Nitrosomonas europaea (Nitrosomonas europaea; 100 μM): 1%; IC50 (Nitrosomonas europaea): 13 µM; activity at 100 µM (Nitrosomonas europaea): 1%

Question: Which results are given for `CSc1nccs1` [Example 25, 2-(methylsulfanyI)-1,3-thiazole]?
Answer: inhibition at 50 µM (Moorslede soil; [1]): 73%; inhibition at 5 µM (Moorslede soil; [2]): 3%; inhibition at 20 µM (Moorslede soil; [3]): 14%; inhibition at 50 µM (Moorslede soil; [2]): 30%; Average nitrification [%] in Nitrosomonas europaea (Nitrosomonas europaea; 2 μM): 85%; Average nitrification [%] in Nitrosomonas europaea (Nitrosomonas europaea; 3.5 μM): 76%; Average nitrification [%] in Nitrosomonas europaea (Nitrosomonas europaea; 6 μM): 73%; Average nitrification [%] in Nitrosomonas europaea (Nitrosomonas europaea; 11 μM): 58%; Average nitrification [%] in Nitrosomonas europaea (Nitrosomonas europaea; 19 μM): 50%; Average nitrification [%] in Nitrosomonas europaea (Nitrosomonas europaea; 33 μM): 32%; Average nitrification [%] in Nitrosomonas europaea (Nitrosomonas europaea; 57 μM): 20%; Average nitrification [%] in Nitrosomonas europaea (Nitrosomonas europaea; 100 μM): 2%; IC50 (Nitrosomonas europaea): 12 µM; activity at 100 µM (Nitrosomonas europaea): 2%
